Measurements from BindingDB's records for doi:10.1016/j.bmcl.2007.03.028 (Merck Frosst Centre For Therapeutic Research, 2007).
“And” between values parts separate entries of the source, which are not always exact repeats. Equal entries are not always repeated.

Target: T1, Cathepsin K (Oryctolagus cuniculus, UniProt P43236)
T1 sequence (P43236 whole entry): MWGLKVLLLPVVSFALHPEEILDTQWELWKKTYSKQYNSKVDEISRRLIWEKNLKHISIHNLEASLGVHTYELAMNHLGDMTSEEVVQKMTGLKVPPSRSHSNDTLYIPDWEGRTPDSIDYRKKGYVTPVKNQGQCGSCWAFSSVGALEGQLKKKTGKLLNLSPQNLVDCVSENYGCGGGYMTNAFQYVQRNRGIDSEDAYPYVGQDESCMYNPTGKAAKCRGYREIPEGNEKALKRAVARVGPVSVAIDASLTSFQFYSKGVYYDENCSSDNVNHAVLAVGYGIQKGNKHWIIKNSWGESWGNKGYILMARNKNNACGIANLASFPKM
Assay: In Vitro Enzyme Inhibition Assay and Bone-Resorption Assay
Details: pH 5.5; 22 °C
Method: Prior to the addition of substrate, different concentrations of the inhibitor ranging from 100 uM to 0.2 nM were preincubated for 15 min with enzyme to allow the establishment of the enzyme-inhibitor complex. The proteolytic cleavage of N-acyl aminocoumarins by cathepsins was conducted in 96-well plate format and the plate read using a Spectramax (Molecular Devices) plate reader. The excitation wavelength was 355 nm and the emission wavelength was 460 nm for peptidyl-AMC substrates. The percent inhibition of the reaction was calculated from a control reaction containing only vehicle. IC50 curves were generated by fitting percent inhibition values to a four parameter logistic model (SOFTMAX PRO, Molecular Devices). EC50/IC50 values were obtained from bone-resorption assay. The long bones were aseptically isolated from a 10-day-old New Zealand White […] (Covance Research Products, Denver, PA) and the soft tissue removed.

Compound	EC50
CSc1ccc(-c2ccccc2[C@@H]2CCC(F)(F)C[C@H]2C(=O)NCC#N)cc1 [(1R,2R)-N-(cyanomethyl)-5,5-difluoro-2-{2-[4-(methylsulfanyl)phenyl]phenyl}cyclohexane-1-carboxamide]	16 nM and 38 nM
CSc1ccc(-c2c[nH]c(=O)cc2[C@@H]2CCC(F)(F)C[C@H]2C(=O)NCC#N)cc1 [(1R,2R)-N-(cyanomethyl)-5,5-difluoro-2-{5-[4-(methylsulfanyl)phenyl]-2-oxo-1,2-dihydropyridin-4-yl}cyclohexane-1-carboxamide]	20 nM
CSc1ccc(-c2c[n+]([O-])ccc2[C@@H]2CCC(F)(F)C[C@H]2C(=O)NCC#N)cc1 [4-[(1R,2R)-2-[(cyanomethyl)carbamoyl]-4,4-difluorocyclohexyl]-3-[4-(methylsulfanyl)phenyl]-1-pyridin-1-olate]	75 nM
CSc1ccc(-c2c([C@@H]3CCC(F)(F)C[C@H]3C(=O)NCC#N)nnn2Cc2ccccc2)cc1 [(1R,2R)-2-{1-benzyl-5-[4-(methylsulfanyl)phenyl]-1H-1,2,3-triazol-4-yl}-N-(cyanomethyl)-5,5-difluorocyclohexane-1-carboxamide]	33 nM
CSc1ccc(-c2nc(C)sc2[C@@H]2CCC(F)(F)C[C@H]2C(=O)NCC#N)cc1 [(1R,2R)-N-(cyanomethyl)-5,5-difluoro-2-{2-methyl-4-[4-(methylsulfanyl)phenyl]-1,3-thiazol-5-yl}cyclohexane-1-carboxamide]	17 nM
CSc1ccc(-c2ncccc2[C@@H]2CCC(F)(F)C[C@H]2C(=O)NCC#N)cc1 [(1R,2R)-N-(cyanomethyl)-5,5-difluoro-2-{2-[4-(methylsulfanyl)phenyl]pyridin-3-yl}cyclohexane-1-carboxamide]	10 nM
CSc1ccc(-c2cnccc2[C@@H]2CCC(F)(F)C[C@H]2C(=O)NCC#N)cc1 [(1R,2R)-N-(cyanomethyl)-5,5-difluoro-2-{3-[4-(methylsulfanyl)phenyl]pyridin-4-yl}cyclohexane-1-carboxamide]	18 nM
N#CCNC(=O)[C@@H]1CC(F)(F)CC[C@H]1c1cnccc1-c1ccc(SCF)cc1 [(1R,2R)-N-(cyanomethyl)-5,5-difluoro-2-(4-{4-[(fluoromethyl)sulfanyl]phenyl}pyridin-3-yl)cyclohexane-1-carboxamide]	58 nM
CSc1ccc(-c2c([C@@H]3CCC(F)(F)C[C@H]3C(=O)NCC#N)cc[nH]c2=O)cc1 [(1R,2R)-N-(cyanomethyl)-5,5-difluoro-2-{3-[4-(methylsulfanyl)phenyl]-2-oxo-1,2-dihydropyridin-4-yl}cyclohexane-1-carboxamide]	84 nM
CSc1ccc(-c2cn(C)nc2[C@@H]2CCC(F)(F)C[C@H]2C(=O)NCC#N)cc1	41 nM
